{"source": "paper PMC11157767", "about": "(Molecular Cancer, 2024)", "key": {"[1]": {"test": "In vitro protein binding assay, culture media", "format": "in vitro ADME", "settings": "read-out: unbound drug fraction, Culture Media, AVG"}, "Kap1 pS824": {"test_system": "Kap1 pS824", "test": "Western blot of phosphorylated Kap1 (pS824) in TFG-MET allograft tumors", "format": "in vivo, mouse", "settings": "capmatinib and RT", "description": "(§1) Error bars display standard error of mean, statistical significance was determined using t-test analysis. (****;p<0.0001, ***;p<0.001, **;p<0.01, *;p<0.05). […] Each dot represents an individual replicate. Error bars display standard error of the mean. Statistical significance was determined using a One-Way ANOVA followed by Tukey’s multiple comparisons test (*p<0.05, **p<0.01, ***p<0.001, ****p<0.0001)."}, "[2]": {"test": "In vitro protein binding assay, mouse plasma"}, "TRIM24-MET-i PDOX [3]": {"test_system": "TRIM24-MET-i PDOX", "test": "TRIM24-MET-i PDOX 4-arm trial capmatinib +/- RT (survival, BLI, body weight)", "format": "in vivo, mouse", "description": "(§2) All treatments started 18 days after transplantation. Radiotherapy was administered at 0.5 Gy per day, delivering 10 Gy total.\nTreatment started on day 13."}, "[4]": {"test_system": "cells isolated from murine tumors induced by overexpressing TFG-MET alone", "settings": "without Trp53 knockout"}, "[5]": {"settings": "mNSCLC patients; cited from earlier work"}, "TFG-MET cells": {"test_system": "TFG-MET cells", "test": "γH2AX immunofluorescence after 8Gy irradiation, TFG-MET cells", "format": "cell-based, mouse", "settings": "various time points following 8Gy irradiation", "excerpt": "Error bars display standard error of mean, statistical significance determined using t-test analysis, *;p<0.05. Scale bar is 10µm."}, "[6]": {"test": "In vitro protein binding assay, naive mouse brain tissue homogenate"}, "TRIM24-MET-i PDOX [7]": {"test_system": "TRIM24-MET-i PDOX", "settings": "for BLI signal, individual mice: PDX trial cap vs cabo", "description": "as §2\nEach line represents one mouse. The ends of lines indicate the onset of neurological symptoms and thereby the endpoints. Treatment started on day 13."}, "[8]": {"test_system": "TRIM24-MET L97 human glioma cell lines", "test": "γH2AX immunofluorescence after 4 Gy irradiation, TRIM24-MET human glioma cells", "format": "cell-based", "settings": "1, 2, 3 and 4 hours following 4 Gy irradiation", "description": "as §1"}, "in vitro [9]": {"test": "in vitro", "settings": "mouse, plasma"}, "in vitro [10]": {"test": "in vitro", "settings": "mouse, brain homogenate"}, "MET-fusion pHGG": {"test_system": "MET-fusion pHGG", "settings": "cited from earlier work"}}, "note": "“And” between values parts separate entries of the source, which are not always exact repeats. Identical values can stand only once. Like-named read-outs stand apart in the source and are kept apart here.", "data": [{"smiles": "CNC(=O)c1ccc(-c2cnc3ncc(Cc4ccc5ncccc5c4)n3n2)cc1F", "note": "[Capmatinib]", "values": [{"measurement": "fraction unbound", "setting": "[1]", "value": 0.705}, {"measurement": "phosphorylated Kap1 in tumors vs vehicle + RT", "setting": "Kap1 pS824", "value": "significantly greater increase"}, {"measurement": "fraction unbound", "setting": "[2]", "value": 0.0502}, {"measurement": "mice with spinal metastasis after therapy was withdrawn", "setting": "TRIM24-MET-i PDOX [3]; capmatinib + RT", "value": "one"}, {"measurement": "tumor burden", "setting": "TRIM24-MET-i PDOX [3]; capmatinib + RT (0.5 Gy per day, 10 Gy total)", "value": "profoundly and stably decreased tumor burden"}, {"measurement": "disease course under monotherapy", "setting": "TRIM24-MET-i PDOX [3]; capmatinib alone", "value": "stable disease in all treated animals"}, {"measurement": "inhibition in dose response assay", "setting": "[4]", "value": "potently inhibited"}, {"measurement": "discontinuation due to fatigue", "setting": "[5]", "value": 1.5, "unit": "%"}, {"measurement": "discontinuation due to peripheral edema", "setting": "[5]", "value": 1.8, "unit": "%"}, {"measurement": "discontinuation due to pneumonitis", "setting": "[5]", "value": 1.8, "unit": "%"}, {"measurement": "patients permanently discontinued due to an adverse reaction", "setting": "[5]", "value": 16, "unit": "%"}, {"measurement": "percentage of cells with ≥10 γH2AX-foci vs DMSO", "setting": "TFG-MET cells", "value": "significantly higher"}, {"measurement": "fraction unbound", "setting": "[6]", "value": 0.113}, {"measurement": "BLI signal, individual mice", "setting": "TRIM24-MET-i PDOX [7]; day 7", "value": "3.18E+07 and 1.72E+07 and 3.36E+07"}, {"measurement": "BLI signal, individual mice", "setting": "TRIM24-MET-i PDOX [7]; day 9", "value": "7.47E+07 and 3.47E+07"}, {"measurement": "BLI signal, individual mice", "setting": "TRIM24-MET-i PDOX [7]; day 14", "value": "5.84E+07 and 2.51E+07"}, {"measurement": "BLI signal, individual mice", "setting": "TRIM24-MET-i PDOX [7]; day 17", "value": "2.44E+07 and 1.00E+07"}, {"measurement": "BLI signal, individual mice", "setting": "TRIM24-MET-i PDOX [7]; day 21", "value": "1.66E+07 and 1.85E+07"}, {"measurement": "BLI signal, individual mice", "setting": "TRIM24-MET-i PDOX [7]; day 24", "value": "1.50E+07 and 1.24E+07"}, {"measurement": "BLI signal, individual mice", "setting": "TRIM24-MET-i PDOX [7]; day 28", "value": "1.39E+07 and 1.53E+07"}, {"measurement": "BLI signal, individual mice", "setting": "TRIM24-MET-i PDOX [7]; day 31", "value": "7.80E+06 and 1.43E+07"}, {"measurement": "BLI signal, individual mice", "setting": "TRIM24-MET-i PDOX [7]; day 35", "value": "9.55E+06 and 1.60E+07 and 7.43E+06"}, {"measurement": "BLI signal, individual mice", "setting": "TRIM24-MET-i PDOX [7]; day 38", "value": "8.92E+06 and 1.56E+07 and 7.00E+06"}, {"measurement": "BLI signal, individual mice", "setting": "TRIM24-MET-i PDOX [7]; day 42", "value": "7.91E+06 and 1.63E+07 and 5.51E+06"}, {"measurement": "BLI signal, individual mice", "setting": "TRIM24-MET-i PDOX [7]; day 45", "value": "9.52E+06 and 1.30E+07 and 6.98E+06"}, {"measurement": "BLI signal, individual mice", "setting": "TRIM24-MET-i PDOX [7]; day 49", "value": "7.93E+06 and 9.97E+06 and 5.88E+06"}, {"measurement": "BLI signal, individual mice", "setting": "TRIM24-MET-i PDOX [7]; day 52", "value": "7.48E+06 and 8.25E+06 and 4.19E+06"}, {"measurement": "BLI signal, individual mice", "setting": "TRIM24-MET-i PDOX [7]; day 56", "value": "8.25E+06 and 1.00E+07 and 5.09E+06"}, {"measurement": "BLI signal, individual mice", "setting": "TRIM24-MET-i PDOX [7]; day 59", "value": "2.02E+06 and 8.98E+06 and 4.17E+06"}, {"measurement": "BLI signal, individual mice", "setting": "TRIM24-MET-i PDOX [7]; day 63", "value": "5.64E+06 and 9.13E+06 and 4.23E+06"}, {"measurement": "BLI signal, individual mice", "setting": "TRIM24-MET-i PDOX [7]; day 66", "value": "6.00E+06 and 8.25E+06 and 4.18E+06"}, {"measurement": "BLI signal, individual mice", "setting": "TRIM24-MET-i PDOX [7]; day 70", "value": "1.53E+06 and 8.82E+06 and 4.89E+06"}, {"measurement": "BLI signal, individual mice", "setting": "TRIM24-MET-i PDOX [7]; day 73", "value": "1.32E+06 and 6.23E+06 and 4.17E+06"}, {"measurement": "BLI signal, individual mice", "setting": "TRIM24-MET-i PDOX [7]; day 77", "value": "4.79E+05 and 1.07E+07 and 4.65E+06"}, {"measurement": "BLI signal, individual mice", "setting": "TRIM24-MET-i PDOX [7]; day 80", "value": "4.21E+05 and 1.01E+07 and 4.77E+06"}, {"measurement": "BLI signal, individual mice", "setting": "TRIM24-MET-i PDOX [7]; day 87", "value": "5.96E+05 and 1.05E+07 and 4.96E+06"}, {"measurement": "BLI signal, individual mice", "setting": "TRIM24-MET-i PDOX [7]; day 94", "value": "8.51E+05 and 7.79E+06"}, {"measurement": "BLI signal, individual mice", "setting": "TRIM24-MET-i PDOX [7]; day 101", "value": "4.10E+05 and 7.68E+06"}, {"measurement": "BLI signal, individual mice", "setting": "TRIM24-MET-i PDOX [7]; day 108", "value": "4.16E+05 and 7.10E+06"}, {"measurement": "BLI signal, individual mice", "setting": "TRIM24-MET-i PDOX [7]; day 115", "value": "3.96E+05 and 8.39E+06"}, {"measurement": "BLI signal, individual mice", "setting": "TRIM24-MET-i PDOX [7]; day 122", "value": "5.52E+05 and 6.96E+06"}, {"measurement": "BLI signal, individual mice", "setting": "TRIM24-MET-i PDOX [7]; day 129", "value": "5.43E+05 and 7.67E+06"}, {"measurement": "BLI signal, individual mice", "setting": "TRIM24-MET-i PDOX [7]; day 134", "value": "7.37E+05 and 1.29E+07"}, {"measurement": "BLI signal, individual mice", "setting": "TRIM24-MET-i PDOX [7]; day 142", "value": "2.48E+05 and 8.31E+06"}, {"measurement": "BLI signal, individual mice", "setting": "TRIM24-MET-i PDOX [7]; day 147", "value": "1.01E+05 and 6.09E+06"}, {"measurement": "BLI signal, individual mice", "setting": "TRIM24-MET-i PDOX [7]; day 154", "value": "7.12E+04 and 6.90E+06"}, {"measurement": "BLI signal, individual mice", "setting": "TRIM24-MET-i PDOX [7]; day 161", "value": "9.26E+04 and 5.65E+06"}, {"measurement": "BLI signal, individual mice", "setting": "TRIM24-MET-i PDOX [7]; day 175", "value": "1.61E+05 and 5.72E+06"}, {"measurement": "BLI signal, individual mice", "setting": "TRIM24-MET-i PDOX [7]; day 182", "value": "4.78E+04 and 7.21E+06"}, {"measurement": "BLI signal, individual mice", "setting": "TRIM24-MET-i PDOX [7]; day 190", "value": "3.12E+05 and 5.75E+06"}, {"measurement": "BLI signal, individual mice", "setting": "TRIM24-MET-i PDOX [7]; day 196", "value": "6.90E+05 and 4.81E+06"}, {"measurement": "BLI signal, individual mice", "setting": "TRIM24-MET-i PDOX [7]; day 203", "value": "1.41E+06 and 5.43E+06"}, {"measurement": "BLI signal, individual mice", "setting": "TRIM24-MET-i PDOX [7]; day 210", "value": "4.51E+07 and 1.12E+07"}, {"measurement": "BLI signal, individual mice", "setting": "TRIM24-MET-i PDOX [7]; day 217", "value": "1.20E+07"}, {"measurement": "BLI signal, individual mice", "setting": "TRIM24-MET-i PDOX [7]; day 224", "value": "3.17E+07"}, {"measurement": "BLI signal, individual mice", "setting": "TRIM24-MET-i PDOX [7]; day 231", "value": "3.11E+08"}, {"measurement": "BLI signal, individual mice", "setting": "TRIM24-MET-i PDOX [7]; day 238", "value": "8.31E+08"}, {"measurement": "survival over the 19-week treatment period", "setting": "TRIM24-MET-i PDOX [7]; capmatinib BID, 8 mice", "value": "all mice surviving"}, {"measurement": "mice with initial tumor regression (luciferase imaging)", "setting": "TRIM24-MET-i PDOX [7]; capmatinib monotherapy", "value": "two out of eight"}, {"measurement": "mice with stable disease (BLI)", "setting": "TRIM24-MET-i PDOX [7]; capmatinib monotherapy", "value": "six out of eight"}, {"measurement": "mice with tumor relapse within 6 months after treatment ceased", "setting": "TRIM24-MET-i PDOX [7]; capmatinib, treated 133 days", "value": "7 of 8"}, {"measurement": "percentage of cells with ≥20 γH2AX-foci vs DMSO", "setting": "[8]", "value": "significantly higher"}]}, {"smiles": "C[C@@H](Oc1cc(-c2cnn(C3CCNCC3)c2)cnc1N)c1c(Cl)ccc(F)c1Cl", "note": "[Crizotinib]", "values": [{"measurement": "fraction unbound", "setting": "[1]", "value": 0.617}, {"measurement": "fraction unbound", "setting": "in vitro [9]", "value": 0.0223}, {"measurement": "fraction unbound", "setting": "in vitro [10]", "value": 0.0106}, {"measurement": "clinical response of one pHGG patient with MET fusion", "setting": "MET-fusion pHGG", "value": "partial response with rapid tumor relapse"}]}]}
